In patent US11572590B2, “Methods for evaluating tumor cell spheroids using 3D microfluidic cell culture device” (Dana-Farber Cancer Institute, Inc., priority 2017, dated 2023):
Like-named read-outs stand apart in the source and are kept apart here.

Experiments:
Experiment in all cases: SelectScreen Kinase Profiling, single point inhibition and IC50 for off-target kinases
Type in all cases: biochemical
off-target kinases [1] = biological target: off-target kinases (Homo sapiens, UniProt P22607); conditions: FGFR3, ZLYTE, ATP Km app
Description: (§1) Biochemical single point inhibition and IC50 concentrations for TBK1, IKKε (IKBKE), and off-target kinases were determined at ThermoFisher Scientific using SelectScreen Kinase Profiling Services (Madison, Wis., USA) (Tables S4A and S4B-1-7). To determine cellular potency, the human colorectal cancer carcinoma cell line HCT116 (ATCC, Manassas, Va.) was maintained in T175 flasks in complete RPMI medium; RPMI 1640 supplemented with 10% FBS, 1× Penicillin-Streptomycin solution and 1×MEM (non-essential amino acids). HCT116 cells were grown to 90-95% confluency in T175 flasks containing complete RPMI medium and transfected in bulk using Lipofectamine 2000 (Invitrogen, Carlsbad, Calif.) with 70 μg of ISG54-luciferase reporter plasmid (Elim Biopharmaceuticals Inc., Hayward, Calif.). The reporter plasmid contains a luciferase gene expression cassette under the transcriptional regulation of the promoter of the human interferon stimulated gene 54 (ISG54). Transfection of the cells was allowed to take place for 6 hours, after which the cells were harvested by treatment with 0.25% trypsin EDTA (Corning Inc., Corning, N.Y.). Trypsinized cells were added to 384-well poly-d-lysine treated black clear bottom tissue culture assay plates (Greiner Bio-One GmbH, Kremsmünster, Austria) at a density of 20,000 cells/well in 80 μL of complete RPMI medium and incubated overnight. After 16-18 hours post-transfection, the assay plates were washed with PBS (Corning Inc., Corning, N.Y.), followed by addition of 80 μL/well of serum-free RPMI 1640 medium containing 1× Penicillin-Streptomycin solution, 1×MEM and 350 nL of DMSO or titrations of Compound 1. Compound 1 titrations were generated by 1.5-fold dilution steps in two overlapping serial dilution series to generate a 40-point compound dose range. After incubation at 37° C. for 1 hour, the cells were stimulated with Poly(I:C) (InvivoGen, San Diego, Calif.) at a final concentration of 15 μg/mL in Optimem media (Life Technologies, Rockville, Md.). The assay plates were incubated for 5 hours at 37° C., followed by addition of One-Glo luciferase firefly reagent (Promega, Madison, Wis.) at 1:1 volume/well and luminescence was measured in an EnVision Multilabel Plate Reader (PerkinElmer, Santa Clara, Calif.). The EC50 values were calculated from the fit of the dose-response curves to a four-parameter equation. All EC50 values represent geometric mean values of a minimum of four determinations.

off-target kinases [2] = biological target: off-target kinases (Homo sapiens, UniProt P48736); conditions: PIK3CG (p110 gamma), Adapta, ATP Km app
Description: as §1

off-target kinases [3] = biological target: T1, off-target kinases (Homo sapiens, UniProt P52564, S207E/T211E); conditions: MAP2K6 (MKK6) S207E T211E (mutant), LanthaScreen Binding
T1 sequence (P52564 1-334 S207E/T211E): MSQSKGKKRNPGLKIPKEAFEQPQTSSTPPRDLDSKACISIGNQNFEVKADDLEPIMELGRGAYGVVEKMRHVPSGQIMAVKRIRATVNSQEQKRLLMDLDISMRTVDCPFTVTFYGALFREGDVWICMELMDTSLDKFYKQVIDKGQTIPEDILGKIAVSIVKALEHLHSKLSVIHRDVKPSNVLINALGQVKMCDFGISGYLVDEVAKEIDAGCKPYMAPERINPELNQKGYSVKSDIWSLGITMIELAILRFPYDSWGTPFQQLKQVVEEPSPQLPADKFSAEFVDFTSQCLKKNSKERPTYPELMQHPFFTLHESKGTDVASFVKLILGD
Description: as §1

off-target kinases [4] = biological target: T2, off-target kinases (Homo sapiens, UniProt Q9NWZ3); conditions: IRAK4, ZLYTE, ATP Km app
T2 sequence (Q9NWZ3 1-460): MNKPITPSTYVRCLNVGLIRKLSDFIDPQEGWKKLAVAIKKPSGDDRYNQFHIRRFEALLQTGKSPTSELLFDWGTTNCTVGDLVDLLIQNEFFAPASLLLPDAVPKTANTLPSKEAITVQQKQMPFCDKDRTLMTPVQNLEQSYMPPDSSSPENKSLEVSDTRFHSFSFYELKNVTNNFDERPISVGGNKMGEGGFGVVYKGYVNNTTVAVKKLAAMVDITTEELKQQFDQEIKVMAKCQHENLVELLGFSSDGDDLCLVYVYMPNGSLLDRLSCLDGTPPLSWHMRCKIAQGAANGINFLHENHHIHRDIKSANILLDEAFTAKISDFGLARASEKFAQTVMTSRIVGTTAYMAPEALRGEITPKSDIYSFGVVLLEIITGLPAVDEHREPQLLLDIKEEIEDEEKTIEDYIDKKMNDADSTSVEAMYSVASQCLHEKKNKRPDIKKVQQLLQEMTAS
Description: as §1

off-target kinases [5] = biological target: off-target kinases (Homo sapiens, UniProt Q9UM73, C1156Y); conditions: ALK C1156Y (mutant), LanthaScreen Binding
Description: as §1

off-target kinases [6] = biological target: off-target kinases (Homo sapiens, UniProt Q9UM73, R1275Q); conditions: ALK R1275Q (mutant), LanthaScreen Binding
Description: as §1

off-target kinases [7] = biological target: off-target kinases (Homo sapiens, UniProt Q9Y2K2); conditions: SIK3, LanthaScreen Binding
Description: as §1

off-target kinases [8] = biological target: off-target kinases (Homo sapiens, UniProt Q9Y3S1); conditions: WNK2, LanthaScreen Binding
Description: as §1

Sequence of off-target kinases (Homo sapiens, UniProt P22607) (P22607 23-806): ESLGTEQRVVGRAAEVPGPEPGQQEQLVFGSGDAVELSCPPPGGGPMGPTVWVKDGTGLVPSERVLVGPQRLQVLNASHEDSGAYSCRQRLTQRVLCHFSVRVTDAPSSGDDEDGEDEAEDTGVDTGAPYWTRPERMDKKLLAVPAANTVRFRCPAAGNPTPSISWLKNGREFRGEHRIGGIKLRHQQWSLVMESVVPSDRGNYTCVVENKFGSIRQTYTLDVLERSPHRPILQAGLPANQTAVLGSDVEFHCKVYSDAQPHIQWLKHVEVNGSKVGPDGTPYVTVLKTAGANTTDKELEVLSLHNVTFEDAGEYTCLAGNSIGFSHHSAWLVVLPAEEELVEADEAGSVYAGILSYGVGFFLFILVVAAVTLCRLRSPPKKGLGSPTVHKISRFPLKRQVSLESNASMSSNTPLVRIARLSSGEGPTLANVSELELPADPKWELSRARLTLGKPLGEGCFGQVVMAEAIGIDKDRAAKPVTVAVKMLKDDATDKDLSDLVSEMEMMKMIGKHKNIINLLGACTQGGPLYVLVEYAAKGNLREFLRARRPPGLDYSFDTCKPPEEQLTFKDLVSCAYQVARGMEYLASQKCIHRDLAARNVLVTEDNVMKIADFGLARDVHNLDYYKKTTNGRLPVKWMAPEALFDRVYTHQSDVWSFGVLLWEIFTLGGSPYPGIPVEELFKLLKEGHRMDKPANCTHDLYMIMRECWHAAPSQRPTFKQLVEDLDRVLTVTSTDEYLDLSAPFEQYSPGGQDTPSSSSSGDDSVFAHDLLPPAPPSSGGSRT
Sequence of off-target kinases (Homo sapiens, UniProt Q9UM73, R1275Q) (Q9UM73 19-1620 R1275Q): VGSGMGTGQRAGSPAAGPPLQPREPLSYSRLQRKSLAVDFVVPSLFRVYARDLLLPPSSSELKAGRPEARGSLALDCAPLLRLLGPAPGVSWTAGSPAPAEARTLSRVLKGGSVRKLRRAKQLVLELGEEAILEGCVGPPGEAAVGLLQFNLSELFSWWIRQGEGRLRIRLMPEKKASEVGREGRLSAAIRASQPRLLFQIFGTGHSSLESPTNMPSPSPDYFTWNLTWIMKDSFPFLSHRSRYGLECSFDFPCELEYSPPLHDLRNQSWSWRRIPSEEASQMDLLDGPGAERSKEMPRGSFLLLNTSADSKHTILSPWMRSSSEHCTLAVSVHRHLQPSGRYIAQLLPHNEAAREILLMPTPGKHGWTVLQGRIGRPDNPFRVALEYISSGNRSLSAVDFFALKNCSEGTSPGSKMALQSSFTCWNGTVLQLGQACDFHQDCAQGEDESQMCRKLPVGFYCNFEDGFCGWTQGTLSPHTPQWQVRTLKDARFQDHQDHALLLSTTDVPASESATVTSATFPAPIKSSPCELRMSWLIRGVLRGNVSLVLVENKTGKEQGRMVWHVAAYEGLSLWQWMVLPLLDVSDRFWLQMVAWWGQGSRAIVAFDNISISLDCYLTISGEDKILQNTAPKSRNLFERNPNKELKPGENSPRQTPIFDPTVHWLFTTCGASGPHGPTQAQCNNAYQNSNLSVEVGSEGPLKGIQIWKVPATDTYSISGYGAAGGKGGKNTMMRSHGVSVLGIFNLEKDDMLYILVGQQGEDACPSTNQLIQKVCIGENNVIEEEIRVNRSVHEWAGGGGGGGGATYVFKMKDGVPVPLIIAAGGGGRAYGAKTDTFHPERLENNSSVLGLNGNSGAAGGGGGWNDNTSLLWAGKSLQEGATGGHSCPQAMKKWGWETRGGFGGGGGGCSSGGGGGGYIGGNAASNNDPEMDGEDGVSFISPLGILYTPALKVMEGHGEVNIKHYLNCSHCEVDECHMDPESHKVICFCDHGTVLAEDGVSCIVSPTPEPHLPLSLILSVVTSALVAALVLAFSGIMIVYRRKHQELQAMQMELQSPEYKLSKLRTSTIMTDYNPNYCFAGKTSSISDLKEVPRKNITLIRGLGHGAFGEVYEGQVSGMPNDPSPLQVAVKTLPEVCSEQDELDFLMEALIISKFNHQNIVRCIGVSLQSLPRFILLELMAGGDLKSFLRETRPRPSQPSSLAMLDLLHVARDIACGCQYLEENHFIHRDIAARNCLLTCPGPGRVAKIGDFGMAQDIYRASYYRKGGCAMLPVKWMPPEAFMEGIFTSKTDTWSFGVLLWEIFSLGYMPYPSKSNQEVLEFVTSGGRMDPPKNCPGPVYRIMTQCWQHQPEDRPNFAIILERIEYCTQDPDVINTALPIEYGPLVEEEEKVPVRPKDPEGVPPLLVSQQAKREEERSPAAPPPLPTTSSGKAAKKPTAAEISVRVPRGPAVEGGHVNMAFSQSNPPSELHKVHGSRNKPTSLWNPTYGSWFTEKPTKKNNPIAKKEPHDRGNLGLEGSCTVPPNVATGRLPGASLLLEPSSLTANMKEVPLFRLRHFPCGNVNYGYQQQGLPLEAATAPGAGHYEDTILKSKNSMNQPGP
Sequence of off-target kinases (Homo sapiens, UniProt Q9Y2K2) (Q9Y2K2 whole entry): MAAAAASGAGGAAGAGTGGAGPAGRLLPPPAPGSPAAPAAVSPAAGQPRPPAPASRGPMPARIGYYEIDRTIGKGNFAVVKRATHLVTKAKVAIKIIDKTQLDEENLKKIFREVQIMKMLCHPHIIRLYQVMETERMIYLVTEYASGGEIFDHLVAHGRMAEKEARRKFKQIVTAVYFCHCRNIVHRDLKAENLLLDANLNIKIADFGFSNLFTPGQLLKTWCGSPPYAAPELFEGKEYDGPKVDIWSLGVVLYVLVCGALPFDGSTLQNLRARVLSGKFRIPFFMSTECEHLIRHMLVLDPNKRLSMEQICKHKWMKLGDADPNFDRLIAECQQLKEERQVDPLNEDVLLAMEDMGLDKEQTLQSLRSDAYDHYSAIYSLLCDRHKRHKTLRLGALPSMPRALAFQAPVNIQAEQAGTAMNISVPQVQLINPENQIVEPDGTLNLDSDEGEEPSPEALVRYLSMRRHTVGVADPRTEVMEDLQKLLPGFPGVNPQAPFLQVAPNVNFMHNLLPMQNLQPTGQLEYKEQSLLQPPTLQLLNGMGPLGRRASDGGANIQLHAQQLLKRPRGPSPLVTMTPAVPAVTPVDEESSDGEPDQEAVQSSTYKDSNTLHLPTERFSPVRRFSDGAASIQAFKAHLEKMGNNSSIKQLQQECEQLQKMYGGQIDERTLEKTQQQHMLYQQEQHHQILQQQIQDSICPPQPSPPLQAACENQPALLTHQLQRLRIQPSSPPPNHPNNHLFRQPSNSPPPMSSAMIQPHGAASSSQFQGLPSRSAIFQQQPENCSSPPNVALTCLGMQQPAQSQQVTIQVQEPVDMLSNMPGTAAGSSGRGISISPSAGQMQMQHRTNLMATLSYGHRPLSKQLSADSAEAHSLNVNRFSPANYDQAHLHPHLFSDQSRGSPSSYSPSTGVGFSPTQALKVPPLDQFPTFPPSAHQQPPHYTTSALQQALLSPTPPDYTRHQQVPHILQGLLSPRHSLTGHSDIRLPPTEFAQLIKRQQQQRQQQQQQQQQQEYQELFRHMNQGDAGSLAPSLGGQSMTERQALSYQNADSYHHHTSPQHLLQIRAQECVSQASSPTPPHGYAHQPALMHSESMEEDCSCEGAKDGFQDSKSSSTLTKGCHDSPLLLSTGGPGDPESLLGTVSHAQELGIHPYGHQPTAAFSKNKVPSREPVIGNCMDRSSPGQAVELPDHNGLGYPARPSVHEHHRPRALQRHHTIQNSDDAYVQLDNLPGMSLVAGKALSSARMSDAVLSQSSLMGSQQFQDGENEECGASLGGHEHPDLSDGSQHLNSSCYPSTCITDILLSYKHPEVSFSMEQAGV
Sequence of off-target kinases (Homo sapiens, UniProt P48736) (P48736 whole entry): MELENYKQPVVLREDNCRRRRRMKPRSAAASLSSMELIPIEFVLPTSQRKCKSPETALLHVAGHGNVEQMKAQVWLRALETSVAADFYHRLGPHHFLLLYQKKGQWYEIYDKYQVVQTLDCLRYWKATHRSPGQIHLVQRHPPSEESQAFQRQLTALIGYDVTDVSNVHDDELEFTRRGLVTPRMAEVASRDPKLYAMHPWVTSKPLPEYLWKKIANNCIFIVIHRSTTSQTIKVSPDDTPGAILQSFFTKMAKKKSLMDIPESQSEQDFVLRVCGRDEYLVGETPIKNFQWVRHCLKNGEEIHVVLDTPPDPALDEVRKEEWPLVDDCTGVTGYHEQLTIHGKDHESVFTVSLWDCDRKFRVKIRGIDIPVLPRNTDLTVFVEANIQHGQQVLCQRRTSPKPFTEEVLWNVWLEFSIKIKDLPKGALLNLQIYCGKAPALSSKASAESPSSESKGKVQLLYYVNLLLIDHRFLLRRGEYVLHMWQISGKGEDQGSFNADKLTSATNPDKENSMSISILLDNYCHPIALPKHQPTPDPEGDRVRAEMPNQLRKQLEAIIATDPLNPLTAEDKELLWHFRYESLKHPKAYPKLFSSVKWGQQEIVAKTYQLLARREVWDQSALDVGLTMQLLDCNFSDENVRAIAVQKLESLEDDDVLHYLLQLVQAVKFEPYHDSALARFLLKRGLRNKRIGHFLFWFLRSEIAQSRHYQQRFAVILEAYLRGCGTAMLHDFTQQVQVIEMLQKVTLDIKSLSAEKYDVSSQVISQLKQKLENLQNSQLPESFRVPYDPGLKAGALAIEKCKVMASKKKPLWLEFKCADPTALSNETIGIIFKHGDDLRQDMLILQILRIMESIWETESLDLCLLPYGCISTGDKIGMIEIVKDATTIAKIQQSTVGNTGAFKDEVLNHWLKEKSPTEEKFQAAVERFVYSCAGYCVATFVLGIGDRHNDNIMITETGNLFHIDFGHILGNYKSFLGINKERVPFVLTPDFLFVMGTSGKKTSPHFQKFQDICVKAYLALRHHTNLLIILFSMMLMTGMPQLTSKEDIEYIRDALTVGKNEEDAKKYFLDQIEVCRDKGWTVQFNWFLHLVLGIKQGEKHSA
Sequence of off-target kinases (Homo sapiens, UniProt Q9UM73, C1156Y) (Q9UM73 19-1620 C1156Y): as the sequence (Q9UM73 19-1620 R1275Q) above, with C1138Y, Q1257R counted along it

With `N#Cc1cc(-c2ncnc(Nc3ccc(N4CCN(C5COC5)CC4)cc3)n2)ccc1OC1CCOCC1` [Compound 1, 5-(4-((4-(4-(oxetan-3-yl)piperazin-1-yl)phenyl)amino)-1,3,5-triazin-2-yl)-2-((tetrahydro-2H-pyran-4-yl)oxy)benzonitrile] the inhibition (off-target kinases [1]; read-out: % Inhibition 1) was 6%, the inhibition (off-target kinases [1]; read-out: % Inhibition 2) was 4% and the inhibition (off-target kinases [1]; read-out: % Inhibition Avg) was 5%. The inhibition (off-target kinases [2]; read-out: % Inhibition 1) was 11%, the inhibition (off-target kinases [2]; read-out: % Inhibition 2) was 8% and the inhibition (off-target kinases [2]; read-out: % Inhibition Avg) was 9%. For the same compound, the inhibition (off-target kinases [3]; read-out: % Inhibition 1) was 5%, the inhibition (off-target kinases [3]; read-out: % Inhibition 2) was 5% and the inhibition (off-target kinases [3]; read-out: % Inhibition Avg) was 5%. For the same compound, the inhibition (off-target kinases [4]; read-out: % Inhibition 1) was 5%, the inhibition (off-target kinases [4]; read-out: % Inhibition 2) was 8% and the inhibition (off-target kinases [4]; read-out: % Inhibition Avg) was 6%. The inhibition (off-target kinases [5]; read-out: % Inhibition 1) was 7%, the inhibition (off-target kinases [5]; read-out: % Inhibition 2) was 12% and the inhibition (off-target kinases [5]; read-out: % Inhibition Avg) was 9%. The inhibition (off-target kinases [6]; read-out: % Inhibition 1) was 0%, the inhibition (off-target kinases [6]; read-out: % Inhibition 2) was 7% and the inhibition (off-target kinases [6]; read-out: % Inhibition Avg) was 4%. For the same compound, the inhibition (off-target kinases [7]; read-out: % Inhibition 1) was 98%, the inhibition (off-target kinases [7]; read-out: % Inhibition 2) was 95% and the inhibition (off-target kinases [7]; read-out: % Inhibition Avg) was 96%. For the same compound, the inhibition (off-target kinases [8]; read-out: % Inhibition 1) was -4%, the inhibition (off-target kinases [8]; read-out: % Inhibition 2) was 5% and the inhibition (off-target kinases [8]; read-out: % Inhibition Avg) was 1%.
